Assay results: PubChem BioAssay AID328 (DTP/NCI, 2004)
“And” between values parts separate entries of the source, which are not always exact repeats. Equal values may be shown once. Inconclusive results and toxic doses are left out.

Test system: BDF1 mice, P388 leukemia ip, median survival T/C
Experiment: NCI In Vivo Anticancer Drug Screen. Data for tumor model P388 Leukemia (intraperitoneal) in B6D2F1 (BDF1) mice
Conditions: endpoint: median survival time, higher = longer survival
Summary of the method: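 Antitumour effect was judged in vivo: survival in drug-treated mice, normalised to that of vehicle-dosed controls, gives the reported T/C.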

[1] = dose: 50.0 mg/kg/injection, schedule: Q01DX009 (ip), vehicle: saline with Tween-80
[2] = dose: 100.0 mg/kg/injection, schedule: Q01DX009 (ip), vehicle: saline with Tween-80
[3] = dose: 200.0 mg/kg/injection, schedule: Q01DX009 (ip), vehicle: saline with Tween-80
[4] = dose: 100.0 mg/kg/injection, schedule: Q04DX002 (ip), vehicle: saline with Tween-80
[5] = dose: 200.0 mg/kg/injection, schedule: Q04DX002 (ip), vehicle: saline with Tween-80
[6] = dose: 400.0 mg/kg/injection, schedule: Q04DX002 (ip), vehicle: saline with Tween-80
[7] = dose: 100.0 mg/kg/injection, schedule: Q01DX001 (ip), vehicle: saline with Tween-80
[8] = dose: 200.0 mg/kg/injection, schedule: Q01DX001 (ip), vehicle: saline with Tween-80
[9] = dose: 50.0 mg/kg/injection, schedule: Q01DX009 (ip), vehicle: saline
[10] = dose: 100.0 mg/kg/injection, schedule: Q01DX009 (ip), vehicle: saline
[11] = dose: 200.0 mg/kg/injection, schedule: Q01DX009 (ip), vehicle: saline

## CC(=O)OCC(=O)[C@@]12OC(C)(C)O[C@@H]1C[C@H]1[C@@H]3CC(C=O)=C4C=C(OCCCl)CC[C@]4(C)[C@@]3(F)[C@@H](O)C[C@@]12C
dose: 0.39 mg/kg/injection, schedule: Q01DX009 (ip), vehicle: Klucel (hydroxypropylcellulose) (HPC)
  T/C: 95 % of control
dose: 0.78 mg/kg/injection, schedule: Q01DX009 (ip), vehicle: Klucel (hydroxypropylcellulose) (HPC)
  T/C: 107 % of control and 113 % of control
dose: 1.56 mg/kg/injection, schedule: Q01DX009 (ip), vehicle: Klucel (hydroxypropylcellulose) (HPC)
  T/C: 106 % of control and 113 % of control
dose: 2.3 mg/kg/injection, schedule: Q04DX003 (ip), vehicle: Klucel (hydroxypropylcellulose) (HPC)
  T/C: 104 % of control
dose: 3.12 mg/kg/injection, schedule: Q01DX009 (ip), vehicle: Klucel (hydroxypropylcellulose) (HPC)
  T/C: 100 % of control
dose: 3.13 mg/kg/injection, schedule: Q01DX009 (ip), vehicle: Klucel (hydroxypropylcellulose) (HPC)
  T/C: 105 % of control
dose: 4.6 mg/kg/injection, schedule: Q04DX003 (ip), vehicle: Klucel (hydroxypropylcellulose) (HPC)
  T/C: 109 % of control
dose: 6.25 mg/kg/injection, schedule: Q01DX009 (ip), vehicle: Klucel (hydroxypropylcellulose) (HPC)
  T/C: 122 % of control
dose: 9.3 mg/kg/injection, schedule: Q04DX003 (ip), vehicle: Klucel (hydroxypropylcellulose) (HPC)
  T/C: 100 % of control
dose: 12.5 mg/kg/injection, schedule: Q01DX009 (ip), vehicle: Klucel (hydroxypropylcellulose) (HPC)
  T/C: 124 % of control
dose: 13.0 mg/kg/injection, schedule: Q04DX003 (ip), vehicle: Klucel (hydroxypropylcellulose) (HPC)
  T/C: 115 % of control
dose: 25.0 mg/kg/injection, schedule: Q04DX003 (ip), vehicle: saline with Tween-80
  T/C: 115 % of control
dose: 30.0 mg/kg/injection, schedule: Q04DX003 (ip), vehicle: Klucel (hydroxypropylcellulose) (HPC)
  T/C: 115 % of control
dose: 45.0 mg/kg/injection, schedule: Q04DX003 (ip), vehicle: Klucel (hydroxypropylcellulose) (HPC)
  T/C: 104 % of control
dose: 50.0 mg/kg/injection, schedule: Q04DX003 (ip), vehicle: saline with Tween-80
  T/C: 114 % of control
dose: 70.0 mg/kg/injection, schedule: Q04DX003 (ip), vehicle: Klucel (hydroxypropylcellulose) (HPC)
  T/C: 108 % of control
dose: 100.0 mg/kg/injection, schedule: Q04DX003 (ip), vehicle: saline with Tween-80
  T/C: 124 % of control
dose: 105.0 mg/kg/injection, schedule: Q04DX003 (ip), vehicle: Klucel (hydroxypropylcellulose) (HPC)
  T/C: 113 % of control
dose: 200.0 mg/kg/injection, schedule: Q04DX003 (ip), vehicle: saline with Tween-80
  T/C: 118 % of control
dose: 400.0 mg/kg/injection, schedule: Q04DX003 (ip), vehicle: saline with Tween-80
  T/C: 100 % of control

## Cc1cc(N(C)C)c2ccc3ccccc3c2n1
[1]
  T/C: 93 % of control
[2]
  T/C: 95 % of control
[3]
  T/C: 101 % of control

## COC(=O)C[CH2][Pb]([c]1ccccc1)([c]1ccccc1)[c]1ccccc1
dose: 25.0 mg/kg/injection, schedule: Q01DX009 (ip), vehicle: saline with Tween-80
  T/C: 106 % of control
[1]
  T/C: 98 % of control

## CC(C)(/C=C/c1ccccc1)C(=O)O
[1]
  T/C: 95 % of control
[2]
  T/C: 102 % of control
[3]
  T/C: 100 % of control

## Cc1cc(N(C)C)cc(C)c1/C=C\c1ccnc2ccccc12
[4]
  T/C: 112 % of control
[5]
  T/C: 107 % of control
[6]
  T/C: 117 % of control

## CC1CCC2(C(=O)O)CCC3(C)C(=CCC4C5(C)CC(O)C(O)C(C)(C(=O)O)C5CCC43C)C2C1(C)O (configuration not stated)
[7]
  T/C: 104 % of control
[8]
  T/C: 100 % of control

## O=C(O)C1(O)CC(O)C(O)C(O)C1 (configuration not stated)
[4]
  T/C: 96 % of control
[5]
  T/C: 94 % of control
[6]
  T/C: 86 % of control

## COc1ccc(/C=N/Nc2nc3ccc4ccccc4c3s2)cc1
[1]
  T/C: 90 % of control
[2]
  T/C: 101 % of control
[3]
  T/C: 115 % of control

## C1O[C@@H]1[C@@H]1CO1
dose: 100.0 mg/kg/injection, schedule: Q01DX006 (ip), vehicle: water
  T/C: 100 % of control
dose: 100.0 mg/kg/injection, schedule: Q01DX010 (ip), vehicle: water
  T/C: 104 % of control and 120 % of control
dose: 200.0 mg/kg/injection, schedule: Q01DX006 (ip), vehicle: water
  T/C: 100 % of control
dose: 200.0 mg/kg/injection, schedule: Q01DX010 (ip), vehicle: water
  T/C: 150 % of control
dose: 225.0 mg/kg/injection, schedule: Q01DX010 (ip), vehicle: water
  T/C: 113 % of control
dose: 300.0 mg/kg/injection, schedule: Q01DX006 (ip), vehicle: water
  T/C: 100 % of control
dose: 300.0 mg/kg/injection, schedule: Q01DX010 (ip), vehicle: water
  T/C: 100 % of control
dose: 335.0 mg/kg/injection, schedule: Q01DX010 (ip), vehicle: water
  T/C: 90 % of control
dose: 400.0 mg/kg/injection, schedule: Q01DX006 (ip), vehicle: water
  T/C: 100 % of control
dose: 400.0 mg/kg/injection, schedule: Q01DX010 (ip), vehicle: water
  T/C: 86 % of control and 95 % of control
dose: 600.0 mg/kg/injection, schedule: Q01DX010 (ip), vehicle: water
  T/C: 90 % of control

## O=[N+]([O-])c1ccc(N2CCCCC2)c([N+](=O)[O-])c1
dose: 12.5 mg/kg/injection, schedule: Q01DX009 (ip), vehicle: saline
  T/C: 110 % of control
dose: 25.0 mg/kg/injection, schedule: Q01DX009 (ip), vehicle: saline
  T/C: 109 % of control
dose: 25.0 mg/kg/injection, schedule: Q04DX003 (ip), vehicle: saline
  T/C: 121 % of control
[9]
  T/C: 116 % of control
dose: 50.0 mg/kg/injection, schedule: Q04DX003 (ip), vehicle: saline
  T/C: 114 % of control
[10]
  T/C: 100 % of control
dose: 100.0 mg/kg/injection, schedule: Q04DX003 (ip), vehicle: saline
  T/C: 112 % of control
[11]
  T/C: 110 % of control
dose: 200.0 mg/kg/injection, schedule: Q04DX003 (ip), vehicle: saline
  T/C: 123 % of control
dose: 400.0 mg/kg/injection, schedule: Q01DX009 (ip), vehicle: saline
  T/C: 110 % of control
dose: 400.0 mg/kg/injection, schedule: Q04DX003 (ip), vehicle: saline
  T/C: 102 % of control

## COC(=O)N1CCC2OC2C1 (configuration not stated)
[9]
  T/C: 99 % of control
[10]
  T/C: 107 % of control
[11]
  T/C: 100 % of control

## CC1CC2CCCC(O)=C2C(=O)O1 (configuration not stated)
dose: 37.0 mg/kg/injection, schedule: Q01DX010 (ip), vehicle: saline
  T/C: 95 % of control
dose: 75.0 mg/kg/injection, schedule: Q01DX010 (ip), vehicle: saline
  T/C: 100 % of control
dose: 150.0 mg/kg/injection, schedule: Q01DX010 (ip), vehicle: saline
  T/C: 105 % of control

## NC(N)=Nc1nc2ccccc2s1
dose: 12.5 mg/kg/injection, schedule: Q04DX003 (ip), vehicle: saline sonified
  T/C: 104 % of control
dose: 25.0 mg/kg/injection, schedule: Q04DX003 (ip), vehicle: saline sonified
  T/C: 100 % of control
dose: 50.0 mg/kg/injection, schedule: Q04DX003 (ip), vehicle: saline sonified
  T/C: 100 % of control

## O=P1(N(CCCl)CCCl)NC(OOC2CCOP(=O)(N(CCCl)CCCl)N2)CCO1 (configuration not stated)
dose: 50.0 mg/kg/injection, schedule: Q01DX001 (ip), vehicle: Klucel (hydroxypropylcellulose) (HPC)
  T/C: 200 % of control
dose: 100.0 mg/kg/injection, schedule: Q01DX001 (ip), vehicle: Klucel (hydroxypropylcellulose) (HPC)
  T/C: 236 % of control
dose: 200.0 mg/kg/injection, schedule: Q01DX001 (ip), vehicle: Klucel (hydroxypropylcellulose) (HPC)
  T/C: 272 % of control
dose: 400.0 mg/kg/injection, schedule: Q01DX001 (ip), vehicle: Klucel (hydroxypropylcellulose) (HPC)
  T/C: 273 % of control

## CCOC(=O)C(Cc1ccc(N(CCCl)CCCl)cc1)NC(=O)C(N)CO (configuration not stated)
dose: 5.0 mg/kg/injection, schedule: Q04DX003 (ip), vehicle: water
  T/C: 157 % of control
dose: 10.0 mg/kg/injection, schedule: Q04DX003 (ip), vehicle: water
  T/C: 263 % of control
dose: 20.0 mg/kg/injection, schedule: Q04DX003 (ip), vehicle: water
  T/C: 263 % of control
dose: 40.0 mg/kg/injection, schedule: Q04DX003 (ip), vehicle: water
  T/C: 105 % of control

## O=C(/C=C/c1ccc(Cl)cc1)NCC(O)CO (configuration not stated)
dose: 400.0 mg/kg/injection, schedule: Q01DX009 (ip), vehicle: water
  T/C: 91 % of control

## CCCCc1cc(O)c2c(c1O)C(=O)c1ccccc1C2=O
[7]
  T/C: 104 % of control
[8]
  T/C: 104 % of control
dose: 400.0 mg/kg/injection, schedule: Q01DX001 (ip), vehicle: saline with Tween-80
  T/C: 90 % of control
